Experimental data: PubChem BioAssay (NCI)
Values joined by “and” are separate entries in the source; they are usually repeats but may differ in a detail not shown here. Equal entries are not always repeated.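 Step 1: Grow cells in 96-well plates. Step 2: Expose to compound for 48 hours at 5 concentrations. Step 3: Interpolate endpoints linearly; if unreached, use highest concentration. GI50: concentration for 50% inhibition of growth. The concentration for full growth arrest is given as TGI.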

How the values were obtained:
Assay in all cases: growth of human tumour cells (NCI), 48 h
COLO 205 colon = tested on: COLO 205 colon
CAKI-1 renal = tested on: CAKI-1 renal
SF-539 CNS = tested on: SF-539 CNS
SK-OV-3 ovarian = tested on: SK-OV-3 ovarian
HT29 colon = tested on: HT29 colon
HCT-116 colon = tested on: HCT-116 colon
SN12C renal = tested on: SN12C renal
SK-MEL-28 melanoma = tested on: SK-MEL-28 melanoma
NCI-H460 lung = tested on: NCI-H460 lung
PC-3 prostate = tested on: PC-3 prostate

| Structure (SMILES) | GI50 (COLO 205 colon) | TGI (COLO 205 colon) [µM] | GI50 (CAKI-1 renal) [µM] | TGI (CAKI-1 renal) [µM] | GI50 (SF-539 CNS) | TGI (SF-539 CNS) | GI50 (SK-OV-3 ovarian) | TGI (SK-OV-3 ovarian) | GI50 (HT29 colon) | TGI (HT29 colon) | GI50 (HCT-116 colon) | TGI (HCT-116 colon) [µM] | GI50 (SN12C renal) | TGI (SN12C renal) | GI50 (SK-MEL-28 melanoma) | TGI (SK-MEL-28 melanoma) | GI50 (NCI-H460 lung) [µM] | TGI (NCI-H460 lung) [µM] | GI50 (PC-3 prostate) [µM] | TGI (PC-3 prostate) [µM] |
| --- | --- | --- | --- | --- | --- | --- | --- | --- | --- | --- | --- | --- | --- | --- | --- | --- | --- | --- | --- | --- |
| COc1ccc(S(=O)(=O)NC2=NCCN2C(=S)SN2CCn3c2nsc3=S)cc1OC | 12.5 µM | 29 | 16.5 | 61.8 | 34.3 µM | > 100 µM | 21.9 µM | 55.2 µM | 25.7 µM | 94.4 µM | 19.2 µM | 40 | 22.6 µM | 54.9 µM | 16.5 µM | 37.5 µM | 28.1 | > 100 | 27.1 | 94 |
| CN(C)CCNC(=O)c1cccc2cc([N+](=O)[O-])ccc12 | 0.893 µM and 0.217 µM |  |  | 16.4 | 0.886 µM and 0.146 µM | 2.34 µM and 0.606 µM | 3.48 µM and 0.535 µM | 33.1 µM and 14.5 µM | 0.681 µM and 0.189 µM | 4.96 µM and 1.07 µM | 0.513 µM and 0.0724 µM |  | 1.69 µM and 0.178 µM | 7.57 µM and 2.24 µM | 1.83 µM and 0.279 µM | 4.2 µM and 0.977 µM | 0.39 | 2.05 |  | 9.44 |
| CNS(=O)(=O)c1ccccc1C(=N)c1ccccc1 |  | > 100 |  | > 100 |  | > 100 µM |  | > 100 µM |  | > 100 µM |  | > 100 |  | > 100 µM |  | > 100 µM |  | > 100 |  | > 100 |
| CN1C(=O)N(C)C2C1NN=c1s/c(=C\c3c[nH]c4ccccc34)c(=O)n12 (stereo unspecified) | 0.0363 µM | 0.564 | 0.0309 | > 100 | 0.0301 µM | 55.9 µM | 0.082 µM | > 100 µM | 0.0377 µM | > 100 µM | 0.0371 µM | > 100 | 0.0714 µM | > 100 µM | 34.5 µM | > 100 µM | 0.0397 | > 100 | 0.0413 | > 100 |
| CC(C)(C)CC(C)(C)N(CSc1ccc(Cl)cc1)CSc1ccc(Cl)cc1 | 2.15 µM | 4.19 | 1.78 | 4.55 | 1.23 µM | 2.56 µM | 2.68 µM | 12.4 µM | 2.83 µM | 9.18 µM | 1.42 µM | 5.85 | 0.506 µM | 3.45 µM | 1.99 µM | 5.74 µM | 0.829 | 8.38 | 0.472 | 4.3 |
| CCc1nc(-n2c(CC)nc3ccccc3c2=O)nc(N)c1-c1ccc(Cl)cc1 | 19.3 µM | > 79.3 | 22.3 | > 84.3 | 30.4 µM | > 100 µM | > 100 µM | > 100 µM | 16.2 µM | > 100 µM | > 26.2 µM | > 100 | > 46.1 µM | > 100 µM | > 100 µM | > 100 µM | 14 | > 100 | 5.74 | > 100 |
| OC(COc1cccc2ccccc12)CN1CCN(c2ccc(Cl)cc2)CC1 (stereo unspecified) | > 100 µM | > 100 | 5.8 | 31.4 | 22.6 µM | 68.5 µM | 14.7 µM | 45.2 µM | 16.6 µM | 77.6 µM | 23.4 µM | > 100 | 51 µM | > 100 µM | 26.9 µM | 71.6 µM | 15.7 | > 100 | 15.3 | 46.2 |
| COc1cc(CNc2nc3cc(N)cc(N)c3nc2-c2ccccc2)cc(OC)c1OC | 3.77 µM | > 50 | 1.9 | 8.76 | 1.34 µM | 8.01 µM | 5.36 µM | 13.9 µM | 8.63 µM | 19.5 µM | 9.84 µM | 19.1 | 8.66 µM | 16.7 µM | 8.53 µM | 17.6 µM | 1.53 | > 50 | 2.18 | > 50 |
| CCC(C(=O)c1cccs1)C(O)(C(F)(F)F)C(F)(F)F (stereo unspecified) |  | > 100 |  | > 100 |  | > 100 µM |  | > 100 µM |  | > 100 µM |  | > 100 |  | > 100 µM |  | > 100 µM |  | > 100 |  | > 100 |
| CCCCCCCCCCCCOC1C(CNCC2OC3OC(C)(C)OC3C2NC(=O)Nc2ccc(C(F)(F)F)cc2)OC2OC(C)(C)OC21 (stereo unspecified) | 3.26 µM | 7.32 | 7.41 | 15.1 | 7.09 µM | 13.9 µM | 9.06 µM | 17.2 µM | 3.14 µM | 7.07 µM | 2.46 µM | 4.7 | 7.04 µM | 15.3 µM | 7.28 µM | 14.5 µM | 4.23 | 11.8 | 6.68 | 13.2 |
| Cc1cc(Nc2cc(CN3CCOCC3)c3nc(C)c(Cc4ccc(Cl)cc4F)n3n2)n[nH]1 | 0.684 µM | 2.01 | 1.74 | 4.67 | 1.36 µM | 3.26 µM | 2.02 µM | 6.38 µM | 1.44 µM | 12.3 µM | 0.689 µM | 2.65 | 1.14 µM | 15.9 µM | 3.5 µM | 17.2 µM | 0.437 | 6.63 | 2.07 | 18.3 |
| COc1cc2cn3c4ccc(O)cc4nc(N)c3c2cc1OC | 0.342 µM | 6.6 | 0.299 | 3.22 | 0.2 µM | 2.39 µM | 0.211 µM | 10.8 µM | 0.714 µM | 4.57 µM | 0.0931 µM | 1.72 | 0.295 µM | 13 µM | 0.0518 µM | 15.8 µM | 0.289 | 2.36 | 0.474 | 14.7 |
